Laboratory results as given in patent publication US10118954B2, “Apelin analogues” (University of Ulster, priority 2014, dated 2018).

Legend:
[1] = Degradation of apelin peptides by plasma from fasted normal NIH Swiss mice (rp-HPLC, MALDI-TOF MS); type: in vitro ADME; details: for half-life at 263 µg/mL / remaining at 4 h, 263 µg/mL: NIH Swiss, mouse, plasma, pH 7.4
Description: Degradation of Apelin Peptides by Plasma from Fasted Normal NIH Swiss Mice […] The enzymatic reaction was stopped by adding 50 μl of 10% TFA (0.1% v/v; Sigma-Aldrich Ltd, (Poole, Dorset, UK) and frozen at -20° C. until separation. The terminated reaction products were then applied to an analytical Vydac C-8 column (4.6×150 mm; Phenomenex, Macclesfield, Cheshire, UK) for rp-HPLC analysis. The absorbance was monitored at 214 nm using a […] UV 2000 detector (Thermoquest Limited, Manchester, UK) and the traces were recorded by Thermo Electron ChromQuest data collection software (version 4). HPLC peak fractions were collected manually and subjected to MALDI-TOF mass spectrometry for peptide identification. Degradation profile of various apelin-13 related analogues: plasma incubations (4 h) were separated on a Vydac C-8 analytical HPLC column and all peaks were collected prior to analysis by MALDI-TOF mass spectrometry. Degradation fragments, actual molecular weights (Mr) and retention times (RT) are shown. Theoretical molecular weights of each fragment are shown in brackets. […] Degradation fragments, theoretical molecular weights (Mr) and retention times (RT) are shown. Theoretical molecular weights of each fragment are shown in brackets.

[2] = test system: NIH Swiss mice fed a high-fat diet for 150 days; assay: Acute and delayed i.p. glucose tolerance test, blood glucose and plasma insulin; type: in vivo
Description: Plasma glucose and plasma insulin concentrations were measured prior to and after i.p. administration of glucose alone (18 mmol/kg body weight), or in combination with apelin analogues (25 nmol/kg body weight) in 18 h fasted mice fed a high-fat diet for 150 days. Values represent mean±SEM for eight mice (n=8). *P<0.05, **P<0.01 and ***P<0.001 compared to glucose alone. FIG. 6 illustrates effect of i.p. administration of glucose alone (18 mmol/kg body weight), ([…])apelin-13 and ([…])apelin-13 alone or in combination (each 25 nmol/kg body weight) on (A) blood glucose and (B) plasma insulin in 18 h fasted mice fed a high-fat diet for 150 days. Values represent mean±SEM for eight mice (n=8). *p<0.05 and **p<0.01 compared to glucose alone, ^+P<0.05 compared to ([…])apelin-13, ^∇P<0.05 and ^∇∇P<0.01 compared to ([…])apelin-13. FIG. 10 illustrates tests conducted 2 h after administration of apelin related analogues (25 nmol/kg body wt) in 18 h fasted mice fed a high-fat diet for 150 days. (A) Blood glucose and (B) plasma insulin was measured before and after i.p. administration of glucose (18 mmol/kg body wt) alone or in combination with apelin analogues. Values represent mean±SEM for eight mice (n=8). *P<0.05 and **P<0.01 compared to glucose alone. FIG. 11 illustrates tests conducted 8 h after administration of apelin related analogues (25 nmol/kg body wt) in 18 h fasted mice fed a high-fat diet for 150 days. (A) Blood glucose and (B) plasma insulin was measured before and after i.p. administration of glucose (18 mmol/kg body wt) alone or in combination with apelin analogues. Values represent mean±SEM for eight mice (n=8). *P<0.05 and **P<0.01 compared to glucose alone. FIG. 12 illustrates acute effects of fatty acid modified apelin analogues on glucose-lowering and insulin release in high fat fed Swiss NIH mice with dietary-induced diabetes. (A) Blood glucose and (B) plasma insulin concentrations were measured prior to and after i.p. administration of glucose alone (18 mmol/kg body weight), or in combination with apelin analogues (25 nmol/kg body weight) in 18 h fasted mice fed a high-fat diet for 150 days. Values represent mean±SEM for eight mice (n=8). *P<0.05, compared to glucose alone. FIG. 13 illustrates tests conducted 16 h after administration of fatty acid apelin analogues (25 nmol/kg body wt) in mice fed a high-fat diet for 150 days. (A) Blood glucose and (B) plasma insulin was measured before and after i.p. administration of glucose (18 mmol/kg body wt) alone or in combination with apelin analogues. Values represent mean±SEM for eight mice (n=8). *P<0.05, **P<0.01 and ***P<0.001 compared to glucose alone. NIH Swiss mice (Harlan UK Ltd., Blackthorne, UK) were derived from a nucleus colony obtained from the National Institute of Health, Bethesda, Md., USA. One group of mice were maintained on a standard rodent diet (10% fat, 30% protein, 60% carbohydrate; percent of total energy 12.99 kJ/g, Trouw Nutrition, Cheshire, UK) and used as a model of normal glycaemia. Other NIH Swiss mice were maintained on a high fat diet (45% fat, 20% protein, 35% carbohydrate; percent of total energy 26.15 […], UK) from 8 weeks of age for 150 days to produce a model of diet induced obesity-diabetes. […] All mice were housed in an air-conditioned room maintained at 22±2° C. with a 12 h light: 12 h dark cycle (08:00-20:00 h), were singly caged, and selected for experimental groups according to body weight and non-fasted blood glucose. Drinking water and diet were freely available. All animal studies were performed in accordance with the UK Animals (Scientific Procedures) Act 1986. For acute in vivo studies, blood samples were collected from the cut tip of the tail vain of fasted, conscious mice into fluoride/heparin coated glucose microcentrifuge tubes (Sarstedt, Germany) immediately prior to (t=0) and at 15, 30, 60 and 105 min following i.p. injection of glucose ([…]).

[3] = test system: high fat fed NIH Swiss mice; assay: 28 day long-term study, twice daily i.p. administration; type: in vivo; details: for Percentage fat mass compared to high-fat fed controls: DEXA; for Glucose tolerance and plasma insulin excursion following an i.p. and oral glucose load: after the 28 day treatment period
Source text: NIH Swiss mice (Harlan UK Ltd., Blackthorne, UK) were derived from a nucleus colony obtained from the National Institute of Health, Bethesda, Md., USA. One group of mice were maintained on a standard rodent diet (10% fat, 30% protein, 60% carbohydrate; percent of total energy 12.99 kJ/g, Trouw Nutrition, Cheshire, UK) and used as a model of normal glycaemia. Other NIH Swiss mice were maintained on a high fat diet (45% fat, 20% protein, 35% carbohydrate; percent of total energy 26.15 […], UK) from 8 weeks of age for 150 days to produce a model of diet induced obesity-diabetes. […] Drinking water and diet were freely available. All animal studies were performed in accordance with the UK Animals (Scientific Procedures) Act 1986. […] Following the run-in period, normal control (n=8) and high-fat fed mice (n=8) received twice daily (09:00 and 17:00 h) i.p. administration of saline vehicle (0.9% NaCl (w/v)) for 28 days. […] Blood samples for glucose and plasma insulin measurement were collected at intervals throughout the study from the cut tail vein of conscious mice. […] Glucose was measured using an Ascensia Contour meter and blood was collected and processed for plasma insulin analysis by radioimmunoassay. Body weight and fat mass was also assessed using the PIXImus DEXA scanner whilst energy expenditure, intake, food intake and feeding bouts were assessed using the CLAMS metabolic chamber. HbA1c was analysed post 28 days using Bayer A1C Now^+ Multi Test meter. Lipid profile test was obtained by using the iLab analyser. Cholesterol, triglyceride and HDL-cholesterol levels were measured, in plasma (3 μl), using the iLab analyser. LDL-cholesterol levels were obtained using the Friedewald equation=total cholesterol-HDL-(triglycerides/3).

male NIH Swiss mice = assay: Acute effects of apelin analogues on voluntary food intake; type: in vivo; details: 25 nmol/kg i.p., 150 min, FIG. 39
Description: Saline and peptide analogues were administered by intraperitoneal injection and cumulative food intake was monitored at 30, 60, 90 and 120 min after feeding.
Mice were habituated to a daily feeding regime of 3 h/day by progressively reducing the daily feeding period over 3 weeks. This was performed to ensure mice consumed entire daily food intake within 3 h, thereby allowing “peptide” effects to be measured over the known eating period of mice. On days 1 to 7, mice were supplied with food from 10:00 h to 20:00 h, on days 8 to 14, food was presented from 10:00 h to 19:00 h and on days 15 to 21, food was restricted to the 3 h interval from 10:00 h to 13:00 h. This regime was continued throughout the experimental period.
Mice that were habituated to a 3 h daily feeding regime were administered with an i.p. injection of saline (0.9% w/v NaCl) or apelin peptide (1-100 nmol/kg bw) at 10:00 h (n=8). Immediately following injection, food was initially weighed and then presented to the mice and subsequently weighed at 30 min intervals up to 180 min.

[4] = acute, peptide 25 nmol/kg i.p. with glucose 18 mmol/kg, Table 4
[5] = following a 2 h delay, 25 nmol/kg
[6] = following a 8 h delay, 25 nmol/kg
[7] = twice daily 25 nmol/kg bw, 28 days
[8] = acute, alone and in combination, each 25 nmol/kg i.p. with glucose, Table 5

SMILES	Degradation fragment, Peak 1 [1]	Rank order of stability [1]	half-life at 263 µg/mL [1] [h]	remaining at 4 h, 263 µg/mL [1] [%]	Rank order on basis of anti-hyperglycaemic efficacy ([2]; acute, Table 4)	Blood glucose as percent of glucose-alone control (lower = stronger glucose lowering) [2, 4]	Insulin secretion, where glucose alone = 100% [2, 4]	Rank order on basis of anti-hyperglycaemic efficacy ([2]; following a 2 h delay)	Blood glucose as percent of glucose-alone control (lower = stronger glucose lowering) [2, 5]	Insulin secretion, where glucose alone = 100% [2, 5]	Rank order on basis of anti-hyperglycaemic efficacy ([2]; following a 8 h delay)	Blood glucose as percent of glucose-alone control (lower = stronger glucose lowering) [2, 6]	Insulin secretion, where glucose alone = 100% [2, 6]	Percentage fat mass compared to high-fat fed controls ([3]; after 28 days)	Glucose tolerance and plasma insulin excursion following an i.p. and oral glucose load [3]	Day of study at which bodyweight was significantly decreased [3, 7] [days]	also measured
CSCC[C@H](NC(=O)[C@@H]1CCCN1C(=O)CNC(=O)[C@H](CCCCN)NC(=O)[C@H](Cc1c[nH]cn1)NC(=O)[C@H](CO)NC(=O)[C@H](CC(C)C)NC(=O)[C@H](CCCNC(=N)N)NC(=O)[C@@H]1CCCN1C(=O)[C@H](CCCNC(=N)N)NC(=O)[C@@H]1CCC(=O)N1)C(=O)N1CCC[C@H]1C(=O)N[C@@H](Cc1ccccc1)C(N)=O [(pGlu)apelin-13-amide]	amide (1-5)	7	10.4	85 ± 1.3	1	57% (**)	159% (***)	1	67% (**)	146% (***)	1	79% (*)	120% (*)	significantly reduced	significantly improved	~20	Degradation fragment, Peak 2 [1]: amide (1-12); Time after injection up to which efficacy is retained ([2]; glucose lowering, high-fat fed mice): up to 8 h; Glycated haemoglobin (HbA1c) in comparison to high-fat fed saline treated controls ([3]; after 28 days): reduction; Insulin sensitivity ([3]; after 28 days, insulin 25 U/kg bw): significantly improved; Day of study at which circulating blood glucose began to be significantly reduced and plasma insulin increased [3, 7]: 10 days; Food intake [3, 7]: significantly reduced food intake; Non-fasting plasma insulin levels [3, 7]: significant increase
CSCC[C@H](NC(=O)[C@@H]1CCCN1C(=O)CNC(=O)[C@H](CCCCN)NC(=O)[C@H](Cc1c[nH]cn1)NC(=O)[C@H](CO)NC(=O)[C@H](CC(C)C)NC(=O)[C@H](CCCNC(=N)N)NC(=O)[C@@H]1CCCN1C(=O)[C@H](CCCNC(=N)N)NC(=O)[C@@H](N)CCC(N)=O)C(=O)N1CCC[C@H]1C(=O)N[C@@H](Cc1ccccc1)C(N)=O [Apelin-13-amide]	Apelin-13-amide (1-12)	5	11.4	80.4 ± 1.9	2	65% (**)	153% (***)	2	73% (**)	142% (**)	3	88% ^	106%	failed to reach significance	significantly improved	~20	Glucose lowering, where glucose alone = 100% [2, 8]: 65% (**); Insulin secretion, where glucose alone = 100% [2, 8]: 153% (***)
CCCCCCCCCCCCCCCC(=O)N[C@@H](CCC(=O)NCCCC[C@H](NC(=O)[C@H](Cc1c[nH]cn1)NC(=O)[C@H](CO)NC(=O)[C@H](CC(C)C)NC(=O)[C@H](CCCNC(=N)N)NC(=O)[C@@H]1CCCN1C(=O)[C@H](CCCNC(=N)N)NC(=O)[C@@H](N)CCC(N)=O)C(=O)NCC(=O)N1CCC[C@H]1C(=O)N[C@@H](CCSC)C(=O)N1CCC[C@H]1C(=O)N[C@H](C(=O)O)C(C)C)C(=O)O [Lys^8GluPAL(Val^13)apelin-13]	–	–	–	–	–	–	–	–	–	–	–	–	–	–	–	–	Increase of food intake, maximal, compared to saline treated control (male NIH Swiss mice): 9.2%
